Measured values as given in US12655116B2, “Substituted isophthalic acid diamides” (Bayer Aktiengesellschaft, priority 2020, dated 2026).

How the values were obtained:
[1] = test system: VIOTR; test: Pre-emergence herbicidal action against VIOTR; format: in vivo, Viola tricolor
Summary of the method: (§1)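 Seeds sown in sandy loam, soil-covered; compound sprayed on soil surface pre-emergence. Application: WP/EC, 600–800 l/ha, 0.2% wetting agent. Readout: visual % damage at 3 weeks.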

[2] = test system: VIOTR; test: Post-emergence herbicidal action against VIOTR; format: in vivo, Viola tricolor; details: 20 g/ha
Summary of the method: (§2)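 Percent herbicidal action is rated by eye about 3 weeks after treatment against untreated controls, where 100% means dead plants and 0% means like controls. Plants in sandy loam are sprayed on green parts at the one-leaf stage with aqueous WP or EC preparations at 600 to 800 l/ha plus 0.2% wetting agent.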

[3] = test system: SETVI; test: Pre-emergence herbicidal action against SETVI; format: in vivo, Setaria viridis; details: dosage 80 g/ha
Summary of the method: as §1

[4] = test system: AVEFA; test: Pre-emergence herbicidal action against AVEFA; format: in vivo, Avena fatua; details: 80 g/ha, pre-emergence
Summary of the method: as §1

[5] = test system: ABUTH; test: Pre-emergence herbicidal action against ABUTH; format: in vivo, Abutilon theophrasti; details: for Pre-emergence action against ABUTH (herbicidal activity in percent): dosage 20 g/ha, scored visually after 3 weeks vs untreated controls, 100% = plants have died, 0% = like control plants
Summary of the method: as §1

[6] = test system: AMARE; test: Pre-emergence herbicidal action against AMARE; format: in vivo, Amaranthus retroflexus
Summary of the method: as §1

[7] = test system: MATIN; test: Pre-emergence herbicidal action against MATIN; format: in vivo, Matricaria inodora
Summary of the method: as §1

[8] = test system: VERPE; test: Pre-emergence herbicidal action against VERPE; format: in vivo, Veronica persica; details: dosage 80 g/ha
Summary of the method: as §1

[9] = test system: DIGSA; test: Pre-emergence herbicidal action against DIGSA; format: in vivo, Digitaria sanguinalis
Summary of the method: as §1

[10] = test system: PHBPU; test: Post-emergence herbicidal action against PHBPU; format: in vivo, Pharbitis purpurea
Summary of the method: as §2

[11] = test system: ALOMY; test: Pre-emergence herbicidal action against ALOMY; format: in vivo, Alopecurus myosuroides; details: 80 g/ha, pre-emergence, scored visually after 3 weeks vs untreated controls (100% = plants have died, 0% = like control plants)
Summary of the method: as §1

[12] = test system: POLCO; test: Pre-emergence herbicidal action against POLCO; format: in vivo, Polygonum convolvulus
Text: Seeds of monocotyledonous and dicotyledonous weed plants and crop plants are laid out in sandy loam soil in wood-fiber pots and covered with soil. The compounds of the invention, formulated in the form of wettable powders (WP) or as emulsion concentrates (EC), are then applied to the surface of the covering soil in the form of an aqueous suspension or emulsion at a water application rate equivalent to 600 to 800 l/ha, with addition of 0.2% wetting agent. After the treatment, the pots are placed in a greenhouse and kept under good growth conditions for the trial plants. The damage to the test plants is scored visually after a test period of 3 weeks by comparison with untreated controls (herbicidal activity in percent (%): 100% activity=the plants have died, 0% activity=like control plants). […] The tables below illustrate, in an illustrative manner, the post-emergence herbicidal action of the compounds of the invention, the herbicidal activity being stated in percent.

[13] = test system: ECHCG; test: Pre-emergence herbicidal action against ECHCG; format: in vivo, Echinochloa crus-galli; details: 80 g/ha
Summary of the method: as §1

[14] = test system: ABUTH; test: Post-emergence herbicidal action against ABUTH; format: in vivo, Abutilon theophrasti; details: visual assessment about 3 weeks after treatment vs untreated controls
Summary of the method: as §2

[15] = test system: ECHCG; test: Post-emergence herbicidal action against ECHCG; format: in vivo, Echinochloa crus-galli
Summary of the method: as §2

[16] = test system: MATIN; test: Post-emergence herbicidal action against MATIN; format: in vivo, Matricaria inodora; details: dosage 20 g/ha
Summary of the method: as §2

[17] = test system: VERPE; test: Post-emergence herbicidal action against VERPE; format: in vivo, Veronica persica; details: 20 g/ha
Summary of the method: as §2

[18] = test system: SETVI; test: Post-emergence herbicidal action against SETVI; format: in vivo, Setaria viridis; details: dosage 20 g/ha
Summary of the method: as §2

[19] = 80 g/ha, scored visually after 3 weeks vs untreated controls (100% = plants have died, 0% = like control plants)
[20] = 20 g/ha, scored visually after 3 weeks vs untreated controls, 100% = plants have died, 0% = like control plants

Compound	Pre-emergence action against VIOTR in % ([1]; dosage 20 g/ha) [%]	Pre-emergence action against VIOTR in % ([1]; dosage 80 g/ha) [%]	Post-emergence action against VIOTR in % [2] [%]	Pre-emergence action against SETVI in % [3] [%]	Pre-emergence action against ABUTH (herbicidal activity) [5, 19] [%]	Pre-emergence action against ABUTH (herbicidal activity in percent) [5] [%]	Pre-emergence action against AMARE in % [6, 20] [%]	Pre-emergence action against AMARE in % [6, 19] [%]	Pre-emergence action against MATIN in % ([7]; dosage 20 g/ha) [%]	Pre-emergence action against MATIN in % ([7]; dosage 80 g/ha) [%]	Pre-emergence action against VERPE in % [8] [%]	Pre-emergence action against DIGSA in % ([9]; dosage 20 g/ha) [%]	Pre-emergence action against DIGSA in % ([9]; dosage 80 g/ha) [%]	Post-emergence action against PHBPU in % ([10]; dosage 20 g/ha) [%]	Pre-emergence action against ALOMY (herbicidal activity) [11] [%]	Pre-emergence action against POLCO in % ([12]; dosage 80 g/ha) [%]	Pre-emergence action against ECHCG in % [13] [%]	Pre-emergence action against POLCO in % ([12]; dosage 20 g/ha) [%]	also measured
Cn1nnnc1NC(=O)c1ccc(Br)c(C(=O)NCC2CC2)c1Cl [Example 1-180]	80	100	90	90	100	90	100	100	90	100	80	100	100	90	100	100	100		Pre-emergence action against AVEFA in % [4]: 80%; Post-emergence action against PHBPU in % ([10]; dosage 5 g/ha): 90%
CC(=O)NC(=O)c1c(C(F)(F)F)ccc(C(=O)Nc2nnnn2C)c1Cl [Example 1-337]																			pest or weed control at 20 g/ha ([1]; Viola tricolor, 504 h, dosage 20 g/ha): 80%; pest or weed control at 80 g/ha ([1]; Viola tricolor, 504 h, dosage 80 g/ha): 80%; pest or weed control at 20 g/ha ([2]; Viola tricolor, 504 h): 80%; pest or weed control at 80 g/ha ([3]; Setaria viridis, 504 h): 90%; pest or weed control at 80 g/ha ([5]; Abutilon theophrasti, 504 h, 80 g/ha, scored visually after 3 weeks vs untreated controls (100% = plants have died, 0% = like control plants)): 100%; pest or weed control at 20 g/ha ([6]; Amaranthus retroflexus, 504 h, 20 g/ha, scored visually after 3 weeks vs untreated controls, 100% = plants have died, 0% = like control plants): 90%; pest or weed control at 80 g/ha ([6]; Amaranthus retroflexus, 504 h, 80 g/ha, scored visually after 3 weeks vs untreated controls, 100% = plants have died, 0% = like control plants): 100%; pest or weed control at 80 g/ha ([8]; Veronica persica, 504 h): 90%; pest or weed control at 80 g/ha ([9]; Digitaria sanguinalis, 504 h, dosage 80 g/ha): 100%; pest or weed control at 20 g/ha ([14]; Abutilon theophrasti, 504 h, dosage 20 g/ha): 80%; pest or weed control at 20 g/ha ([12]; Fallopia convolvulus, 504 h, dosage 20 g/ha): 80%; pest or weed control at 80 g/ha ([12]; Fallopia convolvulus, 504 h, dosage 80 g/ha): 80%
CCn1nnnc1NC(=O)c1ccc(C(F)F)c(C(=O)NC)c1OC [Example 2-72]	100	100	80	100	100	100	100	100	100	100	90	100	100	80	80	80	100	80	Post-emergence action against ECHCG in % ([15]; dosage 5 g/ha): 80%; Post-emergence action against ECHCG in % ([15]; dosage 20 g/ha): 80%; Post-emergence action against MATIN in % [16]: 80%; Post-emergence action against VERPE in % [17]: 80%; Post-emergence action against SETVI in % [18]: 80%; Post-emergence action against ABUTH in % ([14]; dosage 5 g/ha): 80%; Post-emergence action against ABUTH in % ([14]; dosage 20 g/ha): 80%
CCn1nnnc1NC(=O)c1ccc(C(F)(F)F)c(C(=O)NCc2cccs2)c1Cl [Example 2-144]		90					80	100		90	100		100	80		90	80	80	
